{
  "source": "paper doi:10.1101/2025.08.17.668569v1",
  "about": "(bioRxiv, 2025)",
  "key": {"Solubility in water": {"assay": "Solubility in water", "format": "physicochemical"}, "[1]": {"system": "4T1 murine triple-negative breast cancer cells", "assay": "LDH assay", "format": "cell-based"}, "[2]": {"system": "human melanoma cell line LOX IMVI", "assay": "NCI-60 screen, LOX IMVI", "format": "cell-based", "details": "48 h, SRB"}, "[3]": {"system": "HT-29 human colorectal cancer cells", "assay": "LDH assay, HT-29 cells", "format": "cell-based", "details": "read-out: EC50 HT-29, Fig. 2B, 2 h, representative of N = 3"}, "[4]": {"system": "CT26 murine colon carcinoma cells", "assay": "LDH assay, CT26 cells", "format": "cell-based", "details": "read-out: EC50 CT26, Fig. 2A, 2 h, representative of N = 3"}, "[5]": {"system": "HepG2 human liver cancer cells", "assay": "LDH assay, HepG2 cells", "format": "cell-based", "details": "read-out: EC50 HepG2, Fig. 2B, 2 h, representative of N = 3"}, "CT26 tumors": {"system": "CT26 tumors", "assay": "Tumor growth, CT26 murine colorectal model", "format": "in vivo, BALB/c mice", "details": "intratumoral NF27"}, "[6]": {"system": "U2OS human osteosarcoma cells", "assay": "LDH assay, U2OS cells", "format": "cell-based", "details": "read-out: EC50 U2OS, Fig. 2B, 2 h, representative of N = 3"}, "[7]": {"system": "CT2A murine glioblastoma cells", "assay": "LDH assay, CT2A cells", "format": "cell-based", "details": "read-out: EC50 CT2A, Fig. 2A, 2 h, representative of N = 3"}, "[8]": {"assay": "Half-life in murine serum", "format": "in vitro ADME", "details": "mouse"}, "[9]": {"system": "B16-F10 murine melanoma cells", "assay": "LDH assay, B16-F10 cells", "format": "cell-based", "details": "read-out: EC50 B16-F10, Fig. 2A, 2 h, representative of N = 3"}, "[10]": {"system": "NCI-60 human tumor cell lines (59 cancer cell lines)", "details": "48 h"}, "[11]": {"system": "Panc10.05 human pancreatic cancer cells", "assay": "LDH assay, Panc10.05 cells", "format": "cell-based", "details": "read-out: EC50 Panc10.05, Fig. 2B, 2 h, representative of N = 3"}, "[12]": {"system": "MCA205 murine fibrosarcoma cells", "assay": "LDH assay, MCA205 cells", "format": "cell-based", "details": "read-out: EC50 MCA205, Fig. 2A, 2 h, representative of N = 3"}, "SUM149 cells": {"system": "SUM149 cells", "assay": "LDH assay, SUM149 cells", "format": "cell-based, human", "details": "read-out: EC50 SUM149, Fig. 2B, 2 h, representative of N = 3"}},
  "note": "Ends that are not written are not given here.",
  "data": [
    {"substance": "NGRKACLNPASIVKKIIKKILKI [NF11]", "values": [
      {"measurement": "solubility in water", "setting": "Solubility in water; lyophilized powder in water", "result": "formed a hard gel in water"}
    ]},
    {"substance": "NGRKAKKNAKKVKKIIKKIKKI-NH2 [NF22]", "values": [
      {"measurement": "oncolytic activity (LDH release)", "setting": "[1]; initial screen, 4T1 cells", "result": "no detectable oncolytic activity"}
    ]},
    {"substance": "NGRKAKLNPASIVKKIIKKILKS-NH2 [NF27]", "values": [
      {"measurement": "GI50", "setting": "[2]", "result": 26.3, "unit": "µM"},
      {"measurement": "EC50", "setting": "[1]; read-out: EC50 4T1, Fig. 2A, LDH assay, 2 h, representative of N = 3", "result": 12, "unit": "µM"},
      {"measurement": "EC50", "setting": "[3]", "result": 24, "unit": "µM"},
      {"measurement": "solubility", "setting": "Solubility in water; water", "result": "≥ 40", "unit": "mM"},
      {"measurement": "EC50", "setting": "[4]", "result": 4.4, "unit": "µM"},
      {"measurement": "EC50", "setting": "[5]", "result": 27.7, "unit": "µM"},
      {"measurement": "side effects in murine tumor models", "setting": "CT26 tumors", "result": "no observable side effects"},
      {"measurement": "EC50", "setting": "[6]", "result": 11.5, "unit": "µM"},
      {"measurement": "EC50", "setting": "[7]", "result": 14.7, "unit": "µM"},
      {"measurement": "half-life", "setting": "[8]", "result": 29, "unit": "min"},
      {"measurement": "EC50", "setting": "[9]", "result": 10.9, "unit": "µM"},
      {"measurement": "GI50", "setting": "[10]", "result": "< 10", "unit": "µM"},
      {"measurement": "EC50", "setting": "[11]", "result": 21.3, "unit": "µM"},
      {"measurement": "EC50", "setting": "[12]", "result": 10.5, "unit": "µM"},
      {"measurement": "EC50", "setting": "SUM149 cells", "result": 6.6, "unit": "µM"}
    ]}
  ]
}
